Legend:
[1] = test system: OAT1, OAT3, OCT1, OCT2, OATP1B1, OATP1B3, MATE-1, MATE2-K, P-gp, BCRP, BSEP; experiment: Opelconazole as substrate of carrier transporters; assay type: in vitro ADME, human; details: 0.5 and 5 μM; MDCKII, HEK293 cells, BSEP sf9 vesicles
Procedure: (§1) Human transporter protein interactions with opelconazole as a potential substrate and/or inhibitor were assessed for the following key carrier transporters: organic anion transporters, OAT1 and OAT3; organic cation transporters, OCT1 and OCT2; OATP1B1 and OATP1B3; multidrug and toxin extrusion, MATE-1 and MATE2-K; key ATP-binding cassette (ABC) transporters including P-gp, breast cancer resistance protein (BCRP) and bile salt export pump (BSEP). Two concentrations of opelconazole, 0.5 and 5 μM, were tested using MDCKII cells, human embryonic kidney 293 cells and BSEP-transfected sf9 membrane vesicles and then analysed by LC-tandem MS to determine transporter inhibition and whether opelconazole was a transporter substrate. The viability of experimental test systems was confirmed with controls and known probe substrates and probe inhibitors.

[2] = parameters: method as in unpublished data; L.M.R. Cass and L. Berman; details: ref unpublished data; L.M.R. Cass and L. Berman; cited from earlier work
[3] = biological target: T1, OATP1B1 (Homo sapiens, UniProt Q9Y6L6); experiment: Transporter inhibition; assay type: in vitro ADME; details: 0.5 and 5 μM tested
T1 construct: expressed in transfected cells
T1 sequence (Q9Y6L6 1-691): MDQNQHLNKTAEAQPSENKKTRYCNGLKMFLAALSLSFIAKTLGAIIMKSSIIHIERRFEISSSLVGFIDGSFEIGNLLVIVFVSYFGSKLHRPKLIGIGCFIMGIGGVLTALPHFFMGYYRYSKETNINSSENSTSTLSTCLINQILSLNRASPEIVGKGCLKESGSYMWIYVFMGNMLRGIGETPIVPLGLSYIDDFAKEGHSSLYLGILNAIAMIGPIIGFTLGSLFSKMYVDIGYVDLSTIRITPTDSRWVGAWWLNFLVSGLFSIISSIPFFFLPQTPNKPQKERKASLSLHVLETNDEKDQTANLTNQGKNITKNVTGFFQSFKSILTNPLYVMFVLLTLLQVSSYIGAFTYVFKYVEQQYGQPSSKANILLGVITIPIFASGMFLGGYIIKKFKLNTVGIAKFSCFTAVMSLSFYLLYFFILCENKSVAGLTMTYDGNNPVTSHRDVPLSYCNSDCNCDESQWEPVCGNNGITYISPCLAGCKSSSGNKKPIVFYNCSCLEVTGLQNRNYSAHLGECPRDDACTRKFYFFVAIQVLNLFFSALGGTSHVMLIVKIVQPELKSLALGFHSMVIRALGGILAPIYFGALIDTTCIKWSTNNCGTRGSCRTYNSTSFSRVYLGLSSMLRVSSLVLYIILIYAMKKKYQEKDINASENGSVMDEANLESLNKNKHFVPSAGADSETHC
Procedure: as §1

[4] = biological target: T2, OATP1B3 (Homo sapiens, UniProt Q9NPD5); experiment: Transporter inhibition; assay type: in vitro ADME; details: 0.5 and 5 μM tested
T2 construct: expressed in transfected cells
T2 sequence (Q9NPD5 1-702): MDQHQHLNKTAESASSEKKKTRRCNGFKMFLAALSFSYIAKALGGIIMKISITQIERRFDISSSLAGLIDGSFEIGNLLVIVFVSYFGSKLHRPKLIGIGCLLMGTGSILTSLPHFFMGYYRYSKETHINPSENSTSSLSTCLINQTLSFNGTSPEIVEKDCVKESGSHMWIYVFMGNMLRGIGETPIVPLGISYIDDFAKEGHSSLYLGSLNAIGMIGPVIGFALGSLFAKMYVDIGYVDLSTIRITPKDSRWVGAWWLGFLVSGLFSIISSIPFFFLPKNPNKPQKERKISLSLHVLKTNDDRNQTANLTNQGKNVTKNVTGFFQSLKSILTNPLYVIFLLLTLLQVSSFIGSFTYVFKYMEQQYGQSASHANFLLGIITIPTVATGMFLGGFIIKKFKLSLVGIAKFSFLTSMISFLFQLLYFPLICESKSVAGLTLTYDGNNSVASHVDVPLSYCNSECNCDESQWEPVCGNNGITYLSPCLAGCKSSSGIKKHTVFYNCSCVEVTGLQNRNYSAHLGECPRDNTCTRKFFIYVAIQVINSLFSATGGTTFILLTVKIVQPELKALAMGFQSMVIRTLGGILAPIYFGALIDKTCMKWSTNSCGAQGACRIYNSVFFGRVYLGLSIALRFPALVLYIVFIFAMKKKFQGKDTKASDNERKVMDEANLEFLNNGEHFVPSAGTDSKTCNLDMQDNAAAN
Procedure: as §1

[5] = biological target: T3, OCT1 (Homo sapiens, UniProt O15245); experiment: Transporter inhibition; assay type: in vitro ADME; details: 0.5 and 5 μM tested
T3 construct: expressed in transfected cells
T3 sequence (O15245 1-554): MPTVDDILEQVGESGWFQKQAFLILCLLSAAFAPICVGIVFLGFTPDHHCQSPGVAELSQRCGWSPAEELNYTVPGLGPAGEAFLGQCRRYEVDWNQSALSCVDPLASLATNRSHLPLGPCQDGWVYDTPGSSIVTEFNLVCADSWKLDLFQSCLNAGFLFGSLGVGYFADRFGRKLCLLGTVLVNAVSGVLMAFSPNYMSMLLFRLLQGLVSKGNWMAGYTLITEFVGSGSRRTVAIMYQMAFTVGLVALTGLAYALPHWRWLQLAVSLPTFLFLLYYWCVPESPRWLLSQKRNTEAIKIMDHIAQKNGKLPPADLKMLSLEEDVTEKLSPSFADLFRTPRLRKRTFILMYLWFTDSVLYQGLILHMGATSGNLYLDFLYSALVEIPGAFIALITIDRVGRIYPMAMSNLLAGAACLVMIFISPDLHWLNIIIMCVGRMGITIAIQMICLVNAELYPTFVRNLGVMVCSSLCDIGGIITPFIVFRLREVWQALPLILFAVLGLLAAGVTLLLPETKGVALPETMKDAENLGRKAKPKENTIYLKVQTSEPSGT
Procedure: as §1

[6] = parameters: method as in PMID 33340279; details: cited from earlier work
[7] = biological target: CYP2C9 (Homo sapiens, UniProt P11712); experiment: Reaction phenotyping with recombinant CYP enzymes (opelconazole as substrate); assay type: in vitro ADME; details: incubated with 0.01 and 0.1 µM opelconazole
Procedure: The testing of opelconazole as a potential substrate of CYP1A2, 2B6, 2C8, 2C9, 2C19, 2D6 and 3A4 was determined in vitro using recombinant CYP enzymes. Two concentrations of opelconazole (0.01 and 0.1 µM) were tested with each of the seven CYPs.
The relative contributions of CYP3A4 and CYP2C9 were ∼75% and 25%, respectively, when incubated with 0.01 and 0.1 µM opelconazole.

[8] = test system: cryopreserved human hepatocytes; experiment: MTT cytotoxicity assessment in hepatocytes; assay type: cell-based; details: up to 3 μM, one donor
Procedure: The hepatocyte cells were dosed with opelconazole (0.012, 0.03, 0.12, 0.3, 1.2 and 3 μM) and positive control compounds (omeprazole for CYP1A2 and rifampicin for CYP3A4).

Sequence of CYP2C9 (P11712 whole entry): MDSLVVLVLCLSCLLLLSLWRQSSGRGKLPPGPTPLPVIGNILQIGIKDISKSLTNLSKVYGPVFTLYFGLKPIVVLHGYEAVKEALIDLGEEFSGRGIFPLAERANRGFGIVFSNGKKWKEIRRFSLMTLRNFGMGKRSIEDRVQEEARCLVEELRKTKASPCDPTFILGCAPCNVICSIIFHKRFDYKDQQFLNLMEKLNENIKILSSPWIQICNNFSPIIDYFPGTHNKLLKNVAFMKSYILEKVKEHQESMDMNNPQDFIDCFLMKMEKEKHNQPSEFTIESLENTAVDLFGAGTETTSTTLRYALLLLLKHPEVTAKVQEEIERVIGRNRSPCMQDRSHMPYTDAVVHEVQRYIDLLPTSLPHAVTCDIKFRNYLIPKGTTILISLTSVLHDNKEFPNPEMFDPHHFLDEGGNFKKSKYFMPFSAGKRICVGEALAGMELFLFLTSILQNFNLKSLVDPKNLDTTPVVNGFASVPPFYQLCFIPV

## Cc1cc(N2CCN(c3ccc(C(=O)Nc4ccc(F)cc4)cc3)CC2)ccc1OC[C@@H]1CO[C@@](Cn2cncn2)(c2ccc(F)cc2F)C1 [opelconazole]
[1]
  substrate of carrier transporters: not a substrate
[2]
  oral bioavailability of any swallowed fraction: negligible
[3]
  inhibitory interaction with OATP1B1: negligible inhibitory interactions
[4]
  inhibitory interaction with OATP1B3: negligible inhibitory interactions
[5]
  inhibitory interaction with OCT1: negligible inhibitory interactions
[6]
  plasma protein binding (PPB): 97%
[7]
  relative contribution of CYP2C9 to metabolism of opelconazole: ~25%
[8]
  cytotoxicity (MTT): no cytotoxicity was observed
